Test results as given in article PMC9867837 (Cancer letters, 2022).

What was measured:
MDA-MB-231 cells [1] = assay: Immunoblotting for cleaved PARP and caspase 3; assay type: cell-based, human; details: 1 μM for 0–24 h or increasing concentration for 2 h
Procedure: These studies were performed as previously described. Details are presented in Supplementary Information, “Methods”.
Aberrantly-active Stat3 promotes tumor cell growth and proliferation, survival, migration, invasion, and metastasis.
These studies were performed as previously described [1 -3] . Briefly, snap-frozen tumor tissues or cultured cells treated or not were harvested and whole-cell or tissue lysates were prepared in radioimmunoprecipitation assay (RIPA) buffer. Samples of equal total protein were subjected to SDS - PAGE and immunoblotting analysis. Primary antibodies used were anti- Stat3, pY705-Stat3, pS727Stat3, […]
Akt, pT202/Y204Erk1/2 (p44/42), Erk1/2, PARP , caspase 3, c-Myc, survivin, VEGF, β-actin, α/β-tubulin, and GAPDH. For the studies of the effects of cell density and confluence on pY705Stat3, cells were seeded […] in culture dishes. The next day, cells were untreated (DMSO control, […]
0.1%) or treated at the same time with 1 or 2 µM H182, allowed to incubate for the indicated time and then harvested for whole-cell lysate preparation and SDS -PAGE / immunoblotting analy sis. […]
concentration of H182 for 6 h and then treated with 0- 100 nM docetaxel or 0-20 µM cisplatin for a total of 72 h. Viable cell numbers were assessed by a CyQuant cell proliferation kit according to the manufacturer’s instructions (Thermo/Life Technologies Corp, Carlsbad, CA). […]

MDA-MB-231 cells [2] = assay: Soft-agar colony formation; assay type: cell-based, human; details: 0.3–2 μM H182
Procedure: These studies were performed as previously reported. Details are presented in Supplementary Information, “Methods”.
These studies were performed as previously reported . For the clonogenic survival assay, briefly, cells were seeded as single-cell (500 cells per well) in 6 -well plates, then untreated (DMSO control) or treated once the following day with H182 and allowed to grow until large colonies were visible, which were stained with crystal violet for 4 h and imaged with a FluorChem imaging system (Protein Simple, Santa Clara, CA).
For the soft-agar assay, briefly, each well contained a bottom layer of 1 ml of 1% agarose in complete DMEM and a top layer of 1 ml of 0.5% agarose in complete DMEM containing 500 cells. After the upper agar layer containing cells solidified, 1 ml culture medium containing H182 (0-2 µM) or DMSO (control) was overlaid, and the cultures were maintained at 37 °C in the incubator, with the medium replacement every 3-4 days with fresh medium that contains the inhibitor or not. Cells were allowed to culture for 3-4 weeks until large colonies were visible under microscope. The colonies were stained with crystal violet and […]
1.2.8. Confocal microscopy studies
4 cells in 1 ml) in logarithmic
These studies were performed as previously reported. […]

Q: Which results are given for `O=C([C@H]1CCN1S(=O)(=O)c1c(F)c(F)c(F)c(F)c1F)N(Cc1ccc(C2CCCCC2)cn1)c1ccc2c(=O)[nH]ncc2c1` [Compound H182]?
A: Cleaved PARP and caspase 3 (MDA-MB-231 cells [1]): moderate levels; Effect on anchorage-independent growth in soft-agar (MDA-MB-231 cells [2]): potently and dose-dependently inhibited
